What was measured:
[1] = molecular target: CYP2C9 (Homo sapiens, UniProt P11712); test: CYP2C9 inhibition (fluorescent substrate MFC); assay type: in vitro ADME; settings: read-out: Cyp IC50 2C9
How it was run: (§1)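 Compounds, serially diluted 1:1 over 10 points in NADPH-regenerating cofactor mix with 5% acetonitrile, were preincubated 10 min at 37 °C, then run with enzyme and substrate at 37 °C (CYP1A2 15 min; CYP2C9 45 min; CYP2C19, CYP2D6 30 min). Product fluorescence gave IC50s.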

[2] = system: SKNSH cells; test: SKNSH (human neuroblastoma) cell proliferation assay (ATPlite); assay type: cell-based; settings: SK-N-SH, read-out: Inhibition of Cell Proliferation IC50, SKNSH
How it was run: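 SK-N-SH human neuroblastoma cells grown in RPMI with 10% FBS were pelleted, resuspended at 2×10^4 cells/mL, and plated at 3,000 cells per well (150 μL) in 96-well plates, then kept overnight at 37° C. in 5% CO2. Compounds in an 8-point 1:3 DMSO series were added as 0.75 μL aliquots.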

[3] = molecular target: T1, BCR-NTRK2 BaF3 cells (Homo sapiens, UniProt Q16620); test: BaF3 BCR-NTRK2 cell proliferation assay (ATPlite); assay type: cell-based; settings: read-out: Inhibition of Cell Proliferation IC50, BCR/BaF3 TrkB
T1 construct: fused on or other part: P11274 (Breakpoint cluster region protein)
How it was run: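 BaF3 cells expressing BCR fusions were plated at 10,000 cells/well without IL-3, and MV-4-11 cells at 25,000 cells/well. Cells were treated the next day with an 8-point 1:3 dilution series (top 10 μM final) and incubated 3 days at 37 °C. ATPlite luminescence gave cell number, from which IC50 was fitted.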

[4] = molecular target: T2, CYP1A2 (Homo sapiens, UniProt P05177); test: CYP1A2 inhibition (fluorescent substrate CEC); assay type: in vitro ADME; settings: read-out: Cyp IC50 1A2
T2 sequence (P05177 1-516): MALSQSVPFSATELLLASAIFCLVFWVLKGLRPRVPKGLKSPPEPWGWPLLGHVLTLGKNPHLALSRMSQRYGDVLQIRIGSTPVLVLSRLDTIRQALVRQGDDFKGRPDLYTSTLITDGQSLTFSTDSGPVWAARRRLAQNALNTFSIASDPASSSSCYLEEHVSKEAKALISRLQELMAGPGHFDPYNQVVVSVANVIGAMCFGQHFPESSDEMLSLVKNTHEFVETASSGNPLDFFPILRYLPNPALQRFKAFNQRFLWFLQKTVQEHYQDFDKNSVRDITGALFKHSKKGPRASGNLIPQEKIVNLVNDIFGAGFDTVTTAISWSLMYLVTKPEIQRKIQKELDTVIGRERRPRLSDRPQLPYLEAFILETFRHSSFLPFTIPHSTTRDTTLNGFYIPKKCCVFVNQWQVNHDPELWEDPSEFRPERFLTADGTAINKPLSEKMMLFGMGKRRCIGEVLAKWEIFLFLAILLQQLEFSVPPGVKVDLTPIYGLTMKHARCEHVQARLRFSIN
How it was run: as §1

Sequence of CYP2C9 (P11712 whole entry): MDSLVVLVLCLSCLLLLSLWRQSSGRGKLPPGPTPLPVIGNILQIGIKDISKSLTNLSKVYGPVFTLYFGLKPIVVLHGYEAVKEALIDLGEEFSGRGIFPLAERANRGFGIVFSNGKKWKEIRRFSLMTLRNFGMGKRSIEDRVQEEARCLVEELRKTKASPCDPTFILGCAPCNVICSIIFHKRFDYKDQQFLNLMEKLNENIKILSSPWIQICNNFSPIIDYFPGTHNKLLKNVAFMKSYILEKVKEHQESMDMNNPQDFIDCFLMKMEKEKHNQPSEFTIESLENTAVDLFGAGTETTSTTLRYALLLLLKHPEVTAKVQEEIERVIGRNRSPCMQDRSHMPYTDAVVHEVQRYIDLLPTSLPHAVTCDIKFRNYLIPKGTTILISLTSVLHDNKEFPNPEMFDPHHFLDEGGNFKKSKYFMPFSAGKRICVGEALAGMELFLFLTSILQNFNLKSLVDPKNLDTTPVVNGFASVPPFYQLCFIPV
T1 sequence (Q16620 538-807): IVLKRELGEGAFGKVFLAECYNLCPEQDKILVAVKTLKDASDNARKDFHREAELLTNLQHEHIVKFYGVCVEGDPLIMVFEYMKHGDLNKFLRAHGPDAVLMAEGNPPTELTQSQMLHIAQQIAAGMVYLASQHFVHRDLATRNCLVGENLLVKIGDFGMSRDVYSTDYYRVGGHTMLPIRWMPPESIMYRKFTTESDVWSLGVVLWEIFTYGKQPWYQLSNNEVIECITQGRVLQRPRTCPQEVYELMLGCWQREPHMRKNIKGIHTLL

Row | Structure (SMILES) | IC50 [1] [µM] | IC50 [2] [µM] | IC50 [3] [µM] | IC50 [4] [µM]
1 | COCCOc1ncnc2[nH]cc(Cc3ccc(Nc4ccc(OC)nc4)nc3F)c12 [Compound P-4019, {6-Fluoro-5-[4-(2-methoxy-ethoxy)-7H-pyrrolo[2,3-d]pyrimidin-5-ylmethyl]-pyridin-2-yl}-(6-methoxy-pyridin-3-yl)-amine] | > 10 | > 1 | < 0.1 | > 10
2 | COc1ccc(Nc2ccc(C(=O)c3c[nH]c4ncnc(C5CC5)c34)c(F)n2)cn1 [Compound P-4022, (4-cyclopropyl-7H-pyrrolo[2,3-d]pyrimidin-5-yl)-[2-fluoro-6-(6-methoxy-pyridin-3-ylamino)-pyridin-3-yl]-methanone] | > 10 | < 1 | < 0.01 | > 10
3 | COc1ccc(Nc2ccc(Cc3c[nH]c4ncnc(C5CC5)c34)c(F)n2)cn1 [Compound P-4023, [5-(4-cyclopropyl-7H-pyrrolo[2,3-d]pyrimidin-5-ylmethyl)-6-fluoro-pyridin-2-yl]-(6-methoxy-pyridin-3-yl)-amine] | > 10 | < 1 | < 0.1 | > 10
4 | CCOc1ccc(Nc2ccc(C(=O)c3c[nH]c4ncnc(OC)c34)c(F)n2)cn1 [Compound P-4024, [6-(6-Ethoxy-pyridin-3-ylamino)-2-fluoro-pyridin-3-yl]-(4-methoxy-7H-pyrrolo[2,3-d]pyrimidin-5-yl)-methanone] | > 10 | > 1 | < 0.1 | > 10
5 | CCOc1ncnc2[nH]cc(C(=O)c3ccc(Nc4ccc(OC)nc4)nc3F)c12 [Compound P-4025, (4-Ethoxy-7H-pyrrolo[2,3-d]pyrimidin-5-yl)-[2-fluoro-6-(6-methoxy-pyridin-3-ylamino)-pyridin-3-yl]-methanone] | > 10 | > 1 | < 0.1 | > 10
6 | Fc1nc(NC2CCC(F)(F)CC2)ccc1Cc1c[nH]c2ncnc(NCC(F)(F)F)c12 [Compound P-4128, 5-[[6-[(4,4-difluorocyclohexyl)amino]-2-fluoro-3-pyridyl]methyl]-N-(2,2,2-trifluoroethyl)-7H-pyrrolo[2,3-d]pyrimidin-4-amine] | > 10 | > 1 | < 0.1 | > 10
7 | Fc1nc(NC2CCC(F)(F)CC2)ccc1Cc1c[nH]c2ncnc(NC3CC3)c12 [Compound P-4129, N-cyclopropyl-5-[[6-[(4,4-difluorocyclohexyl)amino]-2-fluoro-3-pyridyl]methyl]-7H-pyrrolo[2,3-d]pyrimidin-4-amine] | 5 to 10 | > 10 | < 0.1 | > 10
8 | Fc1nc(Nc2ccc(C3CC3)nc2)ccc1Cc1c[nH]c2ncnc(NCC(F)(F)F)c12 [Compound P-4130, 5-[[6-[(6-cyclopropyl-3-pyridyl)amino]-2-fluoro-3-pyridyl]methyl]-N-(2,2,2-trifluoroethyl)-7H-pyrrolo[2,3-d]pyrimidin-4-amine] | > 10 | < 10 | < 0.01 | > 10

Reference: patent US8901118B2, “Compounds and methods for kinase modulation, and indications therefor” (Plexxikon Inc., priority 2010, dated 2014)
